From ChEMBL document CHEMBL4808186, “Structure-Based Discovery of Pyrimidine Aminobenzene Derivatives as Potent Oral Reversal Agents against P-gp- and BCRP-Mediated Multidrug Resistance” (J Med Chem, 2021)

Key:
[1] = Tmax in Sprague-Dawley rat at 20 mg/kg, po in presence of N-(2-(6,7-Dimethoxy-3,4-dihydroisoquinolin-2(1H)-yl)ethyl)-3-((4-(furan-2-yl)pyrimidin-2-yl)amino)-4-methylbenzamide by UHPLC-MS analysis; format: ADME, organism-based; conditions: in vivo
[2] = in vivo; conditions: Sprague-Dawley, rat, iv, 5 mg/kg
Description: Half life in Sprague-Dawley rat at 5 mg/kg, iv by UHPLC-MS analysis

[3] = Apparent oral clearance in Sprague-Dawley rat at 20 mg/kg, po in presence of N-(2-(6,7-Dimethoxy-3,4-dihydroisoquinolin-2(1H)-yl)ethyl)-3-((4-(furan-2-yl)pyrimidin-2-yl)amino)-4-methylbenzamide by UHPLC-MS analysis; format: ADME, organism-based; conditions: in vivo
[4] = Cmax in Sprague-Dawley rat at 20 mg/kg, po in presence of N-(2-(6,7-Dimethoxy-3,4-dihydroisoquinolin-2(1H)-yl)ethyl)-3-((4-(furan-2-yl)pyrimidin-2-yl)amino)-4-methylbenzamide by UHPLC-MS analysis; format: ADME, organism-based; set-up: route oral, dose 20 mg/kg; conditions: in vivo
[5] = Tmax in Sprague-Dawley rat at 5 mg/kg, iv by UHPLC-MS analysis; format: ADME, organism-based; conditions: in vivo
[6] = Apparent oral volume of distribution in Sprague-Dawley rat at 20 mg/kg, po in presence of N-(2-(6,7-Dimethoxy-3,4-dihydroisoquinolin-2(1H)-yl)ethyl)-3-((4-(furan-2-yl)pyrimidin-2-yl)amino)-4-methylbenzamide by UHPLC-MS analysis; format: ADME, organism-based; conditions: in vivo
[7] = Apparent oral clearance in Sprague-Dawley rat at 20 mg/kg, po by UHPLC-MS analysis; format: ADME, organism-based; conditions: in vivo
[8] = Oral bioavailability in Sprague-Dawley rat at 20 mg/kg by UHPLC-MS analysis; format: ADME, organism-based; conditions: in vivo
[9] = AUC (0 to t) in Sprague-Dawley rat at 20 mg/kg, po in presence of N-(2-(6,7-Dimethoxy-3,4-dihydroisoquinolin-2(1H)-yl)ethyl)-3-((4-(furan-2-yl)pyrimidin-2-yl)amino)-4-methylbenzamide by UHPLC-MS analysis; format: ADME, organism-based; set-up: dose 20 mg/kg; conditions: in vivo
[10] = AUC (0 to t) in Sprague-Dawley rat at 5 mg/kg, iv by UHPLC-MS analysis; format: ADME, organism-based; set-up: dose 5 mg/kg; conditions: in vivo
[11] = Cmax in Sprague-Dawley rat at 20 mg/kg, po by UHPLC-MS analysis; format: ADME, organism-based; set-up: route oral, dose 20 mg/kg; conditions: in vivo
[12] = in vivo; conditions: Sprague-Dawley, rat, po, 20 mg/kg
Description: Half life in Sprague-Dawley rat at 20 mg/kg, po by UHPLC-MS analysis

[13] = Cmax in Sprague-Dawley rat at 5 mg/kg, iv by UHPLC-MS analysis; format: ADME, organism-based; set-up: route intravenous, dose 5 mg/kg; conditions: in vivo
[14] = Tmax in Sprague-Dawley rat at 20 mg/kg, po by UHPLC-MS analysis; format: ADME, organism-based; conditions: in vivo
[15] = Oral bioavailability in Sprague-Dawley rat at 20 mg/kg in presence of N-(2-(6,7-Dimethoxy-3,4-dihydroisoquinolin-2(1H)-yl)ethyl)-3-((4-(furan-2-yl)pyrimidin-2-yl)amino)-4-methylbenzamide by UHPLC-MS analysis; format: ADME, organism-based; conditions: in vivo
[16] = Apparent oral volume of distribution in Sprague-Dawley rat at 20 mg/kg, po by UHPLC-MS analysis; format: ADME, organism-based; conditions: in vivo
[17] = Apparent oral clearance in Sprague-Dawley rat at 5 mg/kg, iv by UHPLC-MS analysis; format: ADME, organism-based; conditions: in vivo
[18] = AUC (0 to t) in Sprague-Dawley rat at 20 mg/kg, po by UHPLC-MS analysis; format: ADME, organism-based; set-up: dose 20 mg/kg; conditions: in vivo
[19] = Apparent oral volume of distribution in Sprague-Dawley rat at 5 mg/kg, iv by UHPLC-MS analysis; format: ADME, organism-based; conditions: in vivo
[20] = Bioavailability in Sprague-Dawley rat at 5 mg/kg, iv by UHPLC-MS analysis; format: ADME, organism-based; conditions: in vivo
[21] = tested on: MDCK-II; assay: cells; conditions: Canis lupus familiaris, 48 h
Description: Cytotoxicity against MDCK-II cells incubated for 48 hrs by MTT assay

[22] = tested on: K562; assay: Cytotoxicity against human K562 cells incubated for 48 hrs by MTT assay; format: functional, cell-based; conditions: K562, 48 h
[23] = tested on: K562/A02; assay: Cytotoxicity against P-gp overexpressing human K562/A02 cells incubated for 48 hrs by MTT assay; format: functional, cell-based; conditions: K562/A02, 48 h, read-out: IC50
[24] = tested on: MDCK-II; assay: cells; conditions: Canis lupus familiaris, 48 h; remark: listed apart in the source
Description: Cytotoxicity against BCRP-overexpressing MDCK-II cells incubated for 48 hrs by MTT assay

[25] = n-Octanol/water partition coefficient, logP of the compound by UHPLC analysis; format: physicochemical

CC(=O)O[C@H]1C(=O)[C@@]2(C)[C@H]([C@H](OC(=O)c3ccccc3)[C@]3(O)C[C@H](OC(=O)[C@H](O)[C@@H](NC(=O)c4ccccc4)c4ccccc4)C(C)=C1C3(C)C)[C@]1(OC(C)=O)CO[C@@H]1C[C@@H]2O [PACLITAXEL]
Tmax [1]: 2.65 h | half-life [2]: 7.2 min | CL/F [3]: 4.43 L/h | Cmax [4]: 853 ng/mL | Tmax [5]: 0.44 h | Vd/F [6]: 19.06 L | CL/F [7]: 546 mL/min | bioavailability [8]: 8.8% | AUC(0-t) [9]: 4490 ng·h/mL | AUC(0-t) [10]: 1730 ng·h/mL | Cmax [11]: 233 ng/mL | half-life [12]: 1.35 h | Cmax [13]: 926 ng/mL | Tmax [14]: 2 h | bioavailability [15]: 64.7% | Vd/F [16]: 67.4 L | CL/F [17]: 2.88 L/h | AUC(0-t) [18]: 611 ng·h/mL | Vd/F [19]: 5.06 L | F [20]: 100%

COc1cc2c(cc1OC)CN(CCc1ccc(NC(=O)c3ccc(C)c(Nc4nccc(-c5ccccc5O)n4)c3)cc1)CC2
IC50 [21]: > 100 µM | IC50 [22]: > 100 µM | IC50 [23]: > 100 µM | IC50 [24]: > 100 µM | logP [25]: 2.77

COc1cc2c(cc1OC)CN(CCc1ccc(NC(=O)c3ccc(C)c(Nc4nccc(-c5ccccc5)n4)c3)cc1)CC2
IC50 [21]: > 100 µM | IC50 [22]: > 100 µM | IC50 [23]: > 100 µM | IC50 [24]: 79.7 µM | logP [25]: 1.89
